{"source": "paper PMC6668435", "about": "“The structural basis of N-acyl-α-amino-β-lactone formation catalyzed by a nonribosomal peptide synthetase” (Nature Communications, 2019)", "key": {"[1]": {"target": "T1, ObiH (Burkholderia diffusa, UniProt Z9H1N4SZ53)", "T1 sequence (Z9H1N4SZ53 1-440)": "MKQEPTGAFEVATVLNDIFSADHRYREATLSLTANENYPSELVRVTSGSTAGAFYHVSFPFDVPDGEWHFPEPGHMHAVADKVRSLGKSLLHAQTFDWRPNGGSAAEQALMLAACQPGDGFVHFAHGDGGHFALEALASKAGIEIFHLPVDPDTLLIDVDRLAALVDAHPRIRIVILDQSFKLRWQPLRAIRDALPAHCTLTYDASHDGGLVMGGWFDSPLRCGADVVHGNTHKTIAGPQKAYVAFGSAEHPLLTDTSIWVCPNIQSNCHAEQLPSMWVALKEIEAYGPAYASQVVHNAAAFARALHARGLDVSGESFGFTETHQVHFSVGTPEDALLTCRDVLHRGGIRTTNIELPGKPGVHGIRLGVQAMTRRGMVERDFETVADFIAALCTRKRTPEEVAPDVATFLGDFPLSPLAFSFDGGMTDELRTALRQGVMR", "test": "LCMS detection of the β-hydroxy-α-amino acid product in coupled assay", "assay_type": "biochemical"}, "[2]": {"target": "T2, ObiF1 (Burkholderia diffusa, UniProt A0A5H1ZR44)", "T2 construct": "full-length NRPS module C-A-PCP-TE-MLP (last residue Val1390), N-terminal His6, E. coli BL21(DE3), holo form (phosphopantetheinylated with Sfp and CoA); codon-optimised synthetic gene", "test": "coupled ObiF1/F2/D/H reconstitution, LCMS product ion counts", "assay_type": "biochemical", "conditions": "made in situ by ObiH from phenylacetaldehyde and L-Thr; 1 µM holo-ObiF1, 5 mM ATP, 2,3-DHB, GSH or DTT trap, pH 7.5, room temperature"}, "[3]": {"target": "T3, ObiF2 (Burkholderia diffusa, UniProt Z9YLO8D081)", "T3 sequence (Z9YLO8D081 1-545)": "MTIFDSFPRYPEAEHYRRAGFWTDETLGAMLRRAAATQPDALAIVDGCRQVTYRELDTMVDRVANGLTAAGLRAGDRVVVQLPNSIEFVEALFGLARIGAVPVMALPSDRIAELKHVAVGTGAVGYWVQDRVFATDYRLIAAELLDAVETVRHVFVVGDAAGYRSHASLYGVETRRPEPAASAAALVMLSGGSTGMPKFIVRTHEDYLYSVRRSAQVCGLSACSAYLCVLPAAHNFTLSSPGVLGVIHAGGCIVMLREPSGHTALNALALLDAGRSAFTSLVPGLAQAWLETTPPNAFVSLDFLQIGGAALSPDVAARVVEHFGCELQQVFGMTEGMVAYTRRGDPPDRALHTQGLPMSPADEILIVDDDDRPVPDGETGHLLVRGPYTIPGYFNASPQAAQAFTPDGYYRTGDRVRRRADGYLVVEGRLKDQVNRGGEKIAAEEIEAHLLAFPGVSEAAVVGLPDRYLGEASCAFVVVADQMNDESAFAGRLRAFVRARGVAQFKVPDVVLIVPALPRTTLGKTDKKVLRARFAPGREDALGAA", "test": "coupled ObiF1/F2/D/H reconstitution, LCMS of acyl adenylate and product ions", "assay_type": "biochemical"}, "[4]": {"target": "T2, ObiF1", "test": "X-ray crystal structure, […] Å", "assay_type": "binding", "conditions": "holo-ObiF1 co-crystallised with 2 mM ligand; bound in A domain active site (adenylate-forming conformation)"}, "[5]": {"target": "ObiF1-del1304 (ObiF1 C-A-PCP-TE, terminated after Leu1303, without the MLP domain) (Burkholderia diffusa)"}}, "data": [{"compound": "O=CCc1ccccc1", "note": "[1a, phenylacetaldehyde]", "values": [{"measurement": "LCMS detection of the β-hydroxy-α-amino acid product in coupled assay", "setting": "[1]", "result": "Starting from phenylacetaldehyde (PAA), the L-Thr transaldolase ObiH generates"}]}, {"compound": "N[C@H](C(=O)O)[C@H](O)Cc1ccccc1", "note": "[2a, β-OH-homoPhe]", "values": [{"measurement": "coupled ObiF1/F2/D/H reconstitution, LCMS product ion counts", "setting": "[2]", "result": "The best substrates for ObiF1 were β-hydroxy-α-amino acids (2a, 2b) derived from phenylacetaldehydes"}]}, {"compound": "O=C(O)c1ccccc1O", "note": "[3c, 2-OH benzoic acid]", "values": [{"measurement": "coupled ObiF1/F2/D/H reconstitution, LCMS of acyl adenylate and product ions", "setting": "[3]", "result": "2-OH and 3-OH benzoic acids (3c and 3d) were both activated and converted efficiently"}]}, {"compound": "N[C@H](C(=O)O)[C@H](O)Cc1ccc([N+](=O)[O-])cc1", "note": "[β-OH-p-NO2-homoPhe, (2S,3R)-β-hydroxy-p-nitro-homophenylalanine]", "values": [{"measurement": "X-ray crystal structure, 3.0 Å", "setting": "[4]", "result": "β-OH-p-NO2-homoPhe binds in the A domain active site"}]}, {"compound": "ObiF1 MLP domain, residues 1304-1390, co-expressed in trans from the construct ObiF1 rbs1303/4 (domain or fragment)", "values": [{"measurement": "product ion counts by LCMS in the ObiF1/F2/D/H reconstitution assay, protein sample rbs1303/4 (C-A-PCP-TE co-expressed with the MLP domain), no MLP added (fold lower than WT)", "setting": "[5]", "result": 4}]}]}
